Patent publication US20250161245A1, “A MIXTURE OF UREA, BIURET AND N-CONTAINING BY-PRODUCTS CREATED DURING BIURET PRODUCTION AS A DIETARY NON-PROTEIN NITROGEN-SOURCE FOR RUMINANTS AND USES THEREOF” (Yara International ASA, priority 2022, published 2025)

Tested on: rumen microbiota
Test: Gas Production Test, in vitro rumen fermentation model (Example 1)
Format: cell-based
Conditions: for lag period of cumulative gas production: buffered rumen fluid, 39° C.; for part still unused by the rumen microbes after 24 hours: based on the cumulative gas production profiles; for cumulative gas production after 72 hours (comparison): isonitrogenous, 72 hours in vitro incubation, against blank and other NPN sources
Method: The in vitro model used to simulate rumen digestion and utilization of the products is the Gas Production Test protocol, adapted for protein digestibility, as described in more detail in the following paragraph.
Approximately 1 liter of rumen fluid was collected from two different rumen-fistulated animals in the morning. Rumen fluid was strained through a cheesecloth, kept at 39° C. under CO2 and then diluted 1:19 with a nitrogen-free buffer and mineral solution containing 10.03 g NaHCO3, 1.43 g Na2HPO4, 1.55 g KH2PO4, 0.15 g MgSO4·7H2O, 0.52 g Na2S, 0.017 g CaCl2·2H2O, 0.015 g MnCl2·4H2O, 0.002 g […], 0.012 g FeCl3·6H2O and 0.125 mg resazurin per liter.
To ensure the rumen fluid was depleted of free nitrogen and to ensure nitrogen would be the limiting factor for the microbial growth at the start of the experiment, the buffered rumen fluid was pre-incubated for 4 hours at 39° C. with a carbohydrate overload of glucose, xylose and soluble starch, each at 3.33 g/l. During this pre-incubation, all nitrogen available in the rumen fluid would be incorporated into bacterial protein and other bacterial nitrogen-containing components.
Each product was weighed into different glass bottles on an isonitrogenous base, providing 15 mg N per flask. Then, 60 ml of the pre-incubated buffered rumen fluid was added, under continuous flushing with CO2. Flasks were closed with rubber stoppers and placed in a shaking water bath with 50 movements per minute at 39° C. to start the incubation period. The gas production of each flask was recorded continuously for 72 hours using a fully automated system. All test products including a blank (i.e. no product added to the flask of rumen fluid) were tested in one run in triplicate.
The cumulative gas production was measured continuously for 72 hours.

[1] = 15 mg N per flask, 72 hours incubation

In the case of `NC(=O)NC(N)=O` [Biuret], the “time after which gas production stopped / maximum cumulative gas production (end level) was reached” value [1] is reported as 40 h, the “lag period of cumulative gas production” value [1] is reported as “approximately 5 hours” and the “part still unused by the rumen microbes after 24 hours” value is reported as “approximately 60%”.
In the case of `NC(=O)NC(=O)NC(N)=O` [Triuret], the “time after which gas production stopped / maximum cumulative gas production (end level) was reached” value [1] is reported as 60 h, the “time of highest (peak) gas production” value [1] is reported as 20 h and the “lag period of cumulative gas production” value [1] is reported as 9 h. For the same molecule, the “gas production rate from 20 to 50 hours” value (20 to 50 hours of incubation) was “approximately 4 ml/hour” and the “part still unused by the rumen microbes after 24 hours” value was “approximately 60%”.
For `Nc1nc(=O)[nH]c(=O)[nH]1` [ammelide, Ammelide], the “cumulative gas production after 72 hours (comparison)” value was “not significantly different”.
`O=c1[nH]c(=O)[nH]c(=O)[nH]1` [cyanuric acid, Cyanuric acid] was tested, and the “cumulative gas production after 72 hours (comparison)” value was “not significantly different”.
